Measurements taken from ChEMBL document CHEMBL4828752, “Discovery of 1,2,4-triazine dithiocarbamate derivatives as NEDDylation agonists to inhibit gastric cancers” (Eur J Med Chem, 2021).
Activity calls are given as the source filed them. The rule behind the calls is not given here.

Assays:
[1] = target: T1, NEDD8-activating enzyme E1 regulatory subunit (Homo sapiens) (UniProt Q13564); assay: Activation of NAE1-mediated protein degradation in human HGC-27 cells assessed as decrease in c-IAPI level at 9 uM measured after 48 hrs in the presence of proteosome inhibitor, MG132 by western blot analysis; type: cell-based
T1 sequence (whole entry): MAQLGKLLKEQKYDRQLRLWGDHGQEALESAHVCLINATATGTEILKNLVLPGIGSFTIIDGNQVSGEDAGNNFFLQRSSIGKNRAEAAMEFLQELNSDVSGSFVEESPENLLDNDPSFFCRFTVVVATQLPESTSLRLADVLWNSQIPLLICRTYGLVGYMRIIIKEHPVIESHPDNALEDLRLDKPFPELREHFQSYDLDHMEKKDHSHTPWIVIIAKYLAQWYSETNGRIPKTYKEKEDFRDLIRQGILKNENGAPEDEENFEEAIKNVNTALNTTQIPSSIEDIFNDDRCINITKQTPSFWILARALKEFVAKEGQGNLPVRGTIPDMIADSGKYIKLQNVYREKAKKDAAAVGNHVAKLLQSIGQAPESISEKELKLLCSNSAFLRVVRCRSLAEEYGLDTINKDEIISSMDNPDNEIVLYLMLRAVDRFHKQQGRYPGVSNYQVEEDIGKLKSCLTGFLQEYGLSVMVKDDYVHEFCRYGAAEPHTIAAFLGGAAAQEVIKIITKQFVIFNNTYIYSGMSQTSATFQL

[2] = target: T1, NEDD8-activating enzyme E1 regulatory subunit (Homo sapiens); assay: Activation of NAE1 in human HGC-27 cells assessed as PARP cleavage at 1 to 9 uM measured after 48 hrs by western blot analysis; type: cell-based; conditions: filed as agonist, dose 1-9 µM
MGC-803 [3] = assay: Induction of cell morphological changes in human MGC-803 cells assessed as cell rounding at 1 to 3 uM measured after 48 hrs by bright field microscopic analysis; type: functional, cell-based; conditions: dose 1-3 µM
[4] = target: T1, NEDD8-activating enzyme E1 regulatory subunit (Homo sapiens); assay: Activation of NAE1-mediated protein degradation in human MGC-803 cells assessed as decrease in c-IAPI level at 3 uM measured after 48 hrs in the presence of proteosome inhibitor, MG132 by western blot analysis; type: cell-based
MGC-803 [5] = assay: Induction of cell morphological changed in human MGC-803 cells transfected with NEDD8 siRNA at 3 uM measured after 48 hrs by DAPI staining based fluorescence analysis; type: functional
MGC-803 [6] = assay: Induction of mitochondrial membrane potential depolarization in human MGC-803 cells at 1 to 3 uM measured after 48 hrs by JC-1 staining based flow cytometry analysis; type: functional, cell-based; conditions: dose 1-3 µM
[7] = target: T1, NEDD8-activating enzyme E1 regulatory subunit (Homo sapiens); assay: Activation of NAE1-mediated protein degradation in human MGC-803 cells transfected with NEDD8 siRNA assessed as decrease in YAP/TAZ level at 3 uM measured after 48 hrs by western blot analysis; type: cell-based
MGC-803 [8] = assay: Induction of cell morphological changes in human MGC-803 cells transfected with NEDD8 siRNA at 3 uM measured after 48 hrs by bright field microscopic analysis; type: functional, cell-based
MGC-803 [9] = assay: Induction of cell morphological changes in human MGC-803 cells assessed as increase in dead cells by measuring red fluorescence at 1 to 3 uM incubated for 48 hrs by calcein-AM/PI staining based fluorescence analysis; type: functional; conditions: dose 1-3 µM
MGC-803 [10] = assay: Induction of cell morphological changes in human MGC-803 cells transfected with NEDD8 siRNA assessed as increase in dead cells by measuring red fluorescence at 3 uM measured after 48 hrs by calcein-AM/PI staining based fluorescence analysis; type: functional
MGC-803 [11] = assay: Induction of cell morphological changes in human MGC-803 cells at 3 uM measured after 48 hrs in the presence of NEDDylation inhibitor, MLN4924 by bright field microscopic analysis; type: functional, cell-based
[12] = target: T1, NEDD8-activating enzyme E1 regulatory subunit (Homo sapiens); assay: Activation of NAE1-mediated neddylation in human HGC-27 cells assessed as increase in NAE1-NEDD8 level incubated for 12 hrs by western blot analysis; type: cell-based; conditions: filed as agonist, dose 1-9 µM
HGC-27 [13] = assay: Induction of cell morphological changes in human HGC-27 cells assessed as reduction in cell density at 9 uM measured after 48 hrs in the presence of NEDDylation inhibitor, MLN4924 by calcein-AM/PI staining based fluorescence analysis; type: functional
[14] = target: T1, NEDD8-activating enzyme E1 regulatory subunit (Homo sapiens); assay: Activation of NAE1 in human HGC-27 cells assessed as decrease in c-Myc expression at 9 uM measured after 48 hrs in the presence of NEDDylation inhibitor, MLN4924 by western blot analysis; type: cell-based
[15] = target: T1, NEDD8-activating enzyme E1 regulatory subunit (Homo sapiens); assay: Activation of NAE1-mediated protein degradation in human HGC-27 cells assessed as decrease in c-IAPI level at 1 to 9 uM measured after 48 hrs by western blot analysis; type: cell-based; conditions: filed as agonist, dose 1-9 µM
[16] = target: T1, NEDD8-activating enzyme E1 regulatory subunit (Homo sapiens); assay: Activation of NAE1 in human MGC-803 cells assessed as decrease in c-Myc expression at 1 to 3 uM measured after 48 hrs by western blot analysis; type: cell-based; conditions: filed as agonist, dose 1-3 µM
MGC-803 [17] = assay: Induction of G2/M phase arrest in human MGC-803 cells at 3 uM measured after 48 hrs in the presence of NEDDylation inhibitor, MLN4924 by flow cytometry; type: functional, cell-based
HGC-27 [18] = assay: Induction of cell morphological changes in human HGC-27 cells assessed as increase in dead cells by measuring red fluorescence at 9 uM measured after 48 hrs in the presence of NEDDylation inhibitor, MLN4924 by calcein-AM/PI staining based fluorescence analysis; type: functional
HGC-27 [19] = assay: Induction of cell morphological changes in human HGC-27 cells assessed as cell rounding at 1 to 9 uM measured after 48 hrs by bright field microscopic analysis; type: functional, cell-based; conditions: dose 1-9 µM
HGC-27 [20] = assay: Induction of cell morphological changes in human HGC-27 cells at 9 uM measured after 48 hrs in the presence of NEDDylation inhibitor, MLN4924 by bright field microscopic analysis; type: functional, cell-based
MGC-803 [21] = assay: Induction of cell morphological changes in human MGC-803 cells assessed as reduction in cell density at 1 to 3 uM incubated for 48 hrs by calcein-AM/PI staining based fluorescence analysis; type: functional; conditions: dose 1-3 µM
MGC-803 [22] = assay: Antiproliferative activity against human MGC-803 cells assessed as reduction in cell viability at 3 uM measured every 60 mins for 48 hrs by xCELLigence based RTCA analysis; type: functional
[23] = target: T1, NEDD8-activating enzyme E1 regulatory subunit (Homo sapiens); assay: Activation of NAE1 in human MGC-803 cells transfected with NEDD8 siRNA assessed as decrease in c-Myc level at 3 uM measured after 48 hrs by western blot analysis; type: cell-based
MGC-803 [24] = assay: Induction of apoptosis in human MGC-803 cells assessed as increase in number of apoptotic cells measured after 48 hrs by flow cytometry; type: functional, cell-based; conditions: dose 1-3 µM
[25] = target: T1, NEDD8-activating enzyme E1 regulatory subunit (Homo sapiens); assay: Activation of NAE1 in human HGC-27 cells assessed as PARP cleavage at 9 uM measured after 48 hrs in the presence of NEDDylation inhibitor, MLN4924 by western blot analysis; type: cell-based
[26] = target: T1, NEDD8-activating enzyme E1 regulatory subunit (Homo sapiens); assay: Activation of NAE1-mediated neddylation in human MGC-803 cells assessed as increase in Cullin1-NEDD8 level incubated for 12 hrs by western blot analysis; type: cell-based; conditions: filed as agonist, dose 1-3 µM
[27] = target: T1, NEDD8-activating enzyme E1 regulatory subunit (Homo sapiens); assay: Activation of NAE1-mediated neddylation in human MGC-803 cells assessed as increase in Ubc12-NEDD8 level incubated for 12 hrs by western blot analysis; type: cell-based; conditions: filed as agonist, dose 1-3 µM
HGC-27 [28] = assay: Induction of mitochondrial membrane potential depolarization in human HGC-27 cells at 1 to 9 uM measured after 48 hrs by JC-1 staining based flow cytometry analysis; type: functional, cell-based; conditions: dose 1-9 µM

Activity [1]: inactive | Activity [2]: Active | Activity [4]: inactive | Activity [7]: inactive | Activity [12]: Dose-Dependent Effect | Activity [14]: inactive | Activity [15]: Active | Activity [16]: Active | Activity [23]: inactive | Activity [25]: inactive | Activity [26]: Dose-Dependent Effect | Activity [27]: Dose-Dependent Effect
Structure (SMILES): COc1cc(-c2nc(NC(=O)CSC(=S)N3CCN(C(=O)OC(C)(C)C)CC3)nnc2-c2ccc(C)cc2)cc(OC)c1OC
Activity (MGC-803 [3]): Active | Activity (MGC-803 [5]): inactive | Activity (MGC-803 [6]): Active | Activity (MGC-803 [8]): inactive | Activity (MGC-803 [9]): Active | Activity (MGC-803 [10]): inactive | Activity (MGC-803 [11]): inactive | Activity (HGC-27 [13]): inactive | Activity (MGC-803 [17]): inactive | Activity (HGC-27 [18]): inactive | Activity (HGC-27 [19]): Active | Activity (HGC-27 [20]): inactive | Activity (MGC-803 [21]): Active | Activity (MGC-803 [22]): Active | Activity (MGC-803 [24]): Dose-Dependent Effect | Activity (HGC-27 [28]): Active
